Assay type in all cases: cell-based
Experiment [1] relates to M. avium strain 104 (MAH 104) in THP-1 macrophages. The experiment is described as follows: Mycobacterial survival (CFU) in infected THP-1 macrophages. The following applies: 4-day and 7-day, drugs at MIC. The protocol: THP-1 macrophages were differentiated with 50 ng/ml PMA for 24 hours, followed by 24 hours in media prior to infection. Differentiated THP-1 macrophages were either infected with M. avium strains or M. abscessus strains for 1 hour with an multiplicity of infection (MOI) of 5 or uninfected. Cells were washed twice, followed by 1 hour of antibiotic treatment with 200 μg/ml of amikacin to remove extracellular bacteria. After the antibiotic step, cells were washed once more and BisEDT (BIZ) or amikacin was added once to selected wells (see in vitro doses below).
The treatments included: vehicle, amikacin, Soluble BisEDT (S Biz), Insoluble BisEDT (I Biz), and amikacin+BisEDT. The time points for sample preparation were 72 h for M. abscessus strains and 4- and 7-days post infection for M. avium strains. At the indicated timepoints cell media was removed and replaced with 400 ul of 0.1% triton x-100 in H2O for lysis. Wells were pipetted 25 times to disrupt cells then diluted and plated for CFU enumeration.

The next experiment deals with M. abscessus MABS4. In words: MIC (Table 8). To be noted: Mycobacteroides abscessus.
Another experiment relates to M. abscessus MABS1. In words: MIC (Table 8). The following applies: Mycobacteroides abscessus.
Another experiment relates to M. abscessus MABS2. In words: MIC (Table 8). The following applies: Mycobacteroides abscessus.
In experiment [2] the test system is M. abscessus biofilm (six clinical isolates). The experiment is described as follows: MBEC assay, summary over six clinical isolates. The following applies: at high concentrations (amikacin, clarithromycin: apart from MABS4). The text has this: (§1) In this study the MBEC assay was followed as described in the Innovotech Procedural Manual, version 2.1 with minor modifications to assess the antibiofilm activity of the antimicrobial compounds under investigation. The MBEC value refers to the Minimum Biofilm Eradication Concentration of each antimicrobial for each strain. The MBEC value is defined as the minimum antibiotic concentration where the optical density (OD) value at recovery is less than 10% of the control OD value and there is no growth observed with visual examination of the wells.
(§2) Step 1: Inoculation. For resuscitation, all strains were streaked on TSA plates, except for the mycobacteria which were streaked on 7H10 media, from the frozen stocks, and grew overnight at 37° C. (Table 6). From the plate, one colony was picked for inoculation in organism specific medium (OSM) and grown in a shaker incubator at 37° C. at 225 RPM until mid-log phase (OD 0.2-0.8). At mid log phase the culture was diluted in OSM medium (Table 6) to an OD of 0.05. 150 μL of it were aliquoted in each corresponding well in a 96-well MBEC plate (inoculation plate). Subsequently, the MBEC plates were incubated static at 37° C. for the appropriate time for each species (Table 7). During incubation, biofilm formed on the pegs.
(§3) Step 2: Challenge. Following incubation, the peg lid with the biofilm was washed twice in PBS and placed on a second 96-well plate with 200 μl of antibiotic dilutions (challenge plate). The challenge plate was then incubated at 37° C. for 18 h to allow exposure of the biofilm to antibiotics.
Step 3: Recovery. […] The recovery of resistant cells was assessed by an end-point measurement of the optical density at 600 nm (OD600) for each well with a plate reader (FIG. 4).
This is possibly, in part, due to the variable clumping of the cells observed in the biofilm biomass on the pegs. The clumping of the cells also impacted the OD readings. […] For replicate experiments with variable results, the final MBEC values were determined based on the higher MBEC concentration observed among the replicates.

The test system of a further experiment is M. abscessus MABS7. The experiment is described as follows: MIC (Table 8). The following applies: Mycobacteroides abscessus.
A further experiment concerns M. abscessus MABS11. In words: MIC (Table 8). To be noted: Mycobacteroides abscessus.
In a further experiment the test system is M. abscessus MABS9. The experiment is described as follows: MIC (Table 8). To be noted: Mycobacteroides abscessus.
Experiment [3] deals with M. abscessus MABS2 biofilm. The experiment is described as follows: MBEC assay (minimum biofilm eradication concentration). The following applies: 18 h challenge.
Description: as §1, §2, §3
(§4) Step 3: Recovery. In the final step, the peg lid (with the biofilm after treatment with the antibiotics) was washed again twice in PBS and placed on a third 96-well plate (recovery plate) with 200 μl growth medium in each well to allow growth of any bacterial cells resistant to antibiotics at any concentration. The recovery of resistant cells was assessed by an end-point measurement of the optical density at 600 nm (OD600) for each well with a plate reader (FIG. 4).

Experiment [4] has as its system M. abscessus MABS1 biofilm. The experiment is described as above. The following applies: 18 h challenge.
Description: as §1, §2, §3, §4

In experiment [5] the test system is M. abscessus MABS7 biofilm. The experiment is described as above. The following applies: 18 h challenge.
Description: as §1, §2, §3, §4

In experiment [6] the test system is M. abscessus MABS4 biofilm. The description is as above. The following applies: 18 h challenge.
Description: as §1, §2, §3, §4

Experiment [7] deals with M. abscessus MABS9 biofilm. Described as above. The following applies: 18 h challenge.
Description: as §1, §2, §3, §4

For experiment [8], the system named is M. abscessus MABS11 biofilm. Described as above. To be noted: 18 h challenge.
Description: as §1, §2, §3, §4

Structures are written as SMILES. Values after ≈ are worked out from the molar mass of the structure shown. Some results are limits rather than exact numbers.

As for `C1C[S][Bi]([S]CC[S][Bi]2[S]CC[S]2)[S]1` [BisEDT in DMSO], the “mycobacterial survival (CFU, bacterial load) in THP-1 macrophages, in words” value in [1] is recorded as “bacteriostatic effect”.

A word on the MIC: it is the lowest concentration that inhibits growth of the organism. The low end stands for greater potency, the high end for weaker potency. For `CO[C@@]1(NC(=O)Cc2cccs2)C(=O)N2C(C(=O)O)=C(COC(N)=O)CS[C@@H]21` [Cefoxitin], the MIC was 16 µg/mL (≈ 37.4 µM) in the experiment with M. abscessus MABS4; 8 µg/mL (≈ 18.7 µM) in the experiment with M. abscessus MABS1; 8 µg/mL (≈ 18.7 µM) in the experiment on M. abscessus MABS2; 16 µg/mL (≈ 37.4 µM) against M. abscessus MABS7; 16 µg/mL (≈ 37.4 µM) against M. abscessus MABS11; 32 µg/mL (≈ 74.9 µM) in the experiment on M. abscessus MABS9. For the same compound, in experiment [2], the “biofilm susceptibility, in words” value is “resistance”. Further, the MBEC was over 128 µg/mL in [3]; over 128 µg/mL in experiment [4]; over 128 µg/mL in [5]; over 128 µg/mL in experiment [6]; over 256 µg/mL in [7]; over 256 µg/mL in experiment [8].

For the compound `CC[C@H]1OC(=O)[C@H](C)[C@@H](O[C@H]2C[C@@](C)(OC)[C@@H](O)[C@H](C)O2)[C@H](C)[C@@H](O[C@@H]2O[C@H](C)C[C@H](N(C)C)[C@H]2O)[C@](C)(OC)C[C@@H](C)C(=O)[C@H](C)[C@@H](O)[C@]1(C)O` [Clarithromycin], the MIC against M. abscessus MABS4 came to 0.125 µg/mL (≈ 0.167 µM); against M. abscessus MABS1, 16 µg/mL (≈ 21.4 µM); against M. abscessus MABS2 it was 4 µg/mL (≈ 5.35 µM); in the experiment on M. abscessus MABS7, 0.5 µg/mL (≈ 0.668 µM); with M. abscessus MABS11, 2 µg/mL (≈ 2.67 µM); with M. abscessus MABS9, 0.25 µg/mL (≈ 0.334 µM). In experiment [2], the “biofilm susceptibility, in words” value is reported as “resistance”. The MBEC in experiment [3] is over 32 µg/mL; in [4], over 32 µg/mL; in experiment [5] it was over 8 µg/mL; in [6], “<=4 μg/mL”; in experiment [6] (listed as clarithromycin), 4 µg/mL; in [7], over 8 µg/mL. Also, in experiment [8], the MBEC result is recorded as “>=32 μg/mL”.

Take `C[C@@H](O)[C@H]1C(=O)N2C(C(=O)O)=C(SCCN=CN)C[C@H]12` [Imipenem]: the MIC is 8 µg/mL (≈ 26.7 µM) in the experiment with M. abscessus MABS4; 8 µg/mL (≈ 26.7 µM) in the experiment with M. abscessus MABS1; 1 µg/mL (≈ 3.34 µM) with M. abscessus MABS2; 16 µg/mL (≈ 53.4 µM) in the experiment on M. abscessus MABS7; 8 µg/mL (≈ 26.7 µM) with M. abscessus MABS11; 16 µg/mL (≈ 53.4 µM) in the experiment with M. abscessus MABS9. Also, the MBEC in [3] was over 16 µg/mL; in experiment [4] it was over 32 µg/mL; in experiment [5], over 64 µg/mL; in [6], over 64 µg/mL; in experiment [7], over 64 µg/mL; in experiment [8], over 64 µg/mL.
